According to PubChem BioAssay AID1794801 (Yongcheng Song lab at Baylor College of Medicine, 2022):
Activity calls are given as the source filed them.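 The calls were made as follows: active = compounds that disrupt AF9 binding to the DOT1L peptide with an IC50 under 30 µM; inactive = the rest.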

Target: Protein AF-9 (Homo sapiens) (UniProt P42568)
Assay: AF9–DOT1L protein-protein binding disruptors – biochemical, AlphaLISA, MBP-tagged AHD, biotinylated peptide, dose response (AID 1794801)
Conditions: MBP-AF9 AHD and biotin-DOT1L peptide

Protein AF-9 (Homo sapiens), sequence (P42568 whole entry, looked up): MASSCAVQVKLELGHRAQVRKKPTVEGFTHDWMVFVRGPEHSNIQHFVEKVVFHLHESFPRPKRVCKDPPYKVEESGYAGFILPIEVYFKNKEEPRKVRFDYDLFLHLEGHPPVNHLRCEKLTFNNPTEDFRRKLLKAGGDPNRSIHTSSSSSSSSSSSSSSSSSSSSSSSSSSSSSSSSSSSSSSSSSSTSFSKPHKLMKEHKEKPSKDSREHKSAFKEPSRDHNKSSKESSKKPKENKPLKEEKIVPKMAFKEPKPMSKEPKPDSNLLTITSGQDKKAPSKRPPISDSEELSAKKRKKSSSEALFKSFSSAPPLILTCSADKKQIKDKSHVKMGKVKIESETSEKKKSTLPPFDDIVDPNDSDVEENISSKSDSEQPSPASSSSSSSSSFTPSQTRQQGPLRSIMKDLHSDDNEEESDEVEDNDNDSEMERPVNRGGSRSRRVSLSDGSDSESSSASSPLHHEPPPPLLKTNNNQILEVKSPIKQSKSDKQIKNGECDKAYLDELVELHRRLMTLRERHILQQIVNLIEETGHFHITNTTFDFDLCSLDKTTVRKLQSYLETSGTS

In the case of NCc1ccc(-c2ccc3cc(C(=O)NCC4CCNCC4)oc3c2)cc1, the IC50 is reported as > 30 µM (inactive).
O=C(NCC1CCNCC1)c1c[nH]c2cc(-c3ccc(N4CCCC4)cc3)ccc12 gave an IC50 of 2.9 µM.
O=C(NCC1CCNCC1)c1cc2ccc(-c3ccc(N4CCCCC4)cc3)cc2s1 gave an IC50 of 1.6 µM.
Compound O=C(NCC1CCNCC1)c1cc2ccc(Nc3ccc(N4CCCCC4)cc3)cc2o1 has an IC50 of 4.6 µM.
Compound O=C(NCC1CCNCC1)c1c[nH]c2cc(-c3ccc(N4CCCCC4)cc3)ccc12 has an IC50 of 4.5 µM.
In the case of O=C(NCC1CCNCC1)c1cc2ccc(-c3ccc(N4CCCC4)cc3)cc2s1, the IC50 is reported as 5.3 µM.
For O=C(NCC1CCNCC1)c1cc2cc(-c3ccc(N4CCCC4)cc3)ccc2[nH]1, the IC50 was 2.7 µM.
For O=C(NCC1CCNCC1)c1cc2cc(-c3ccc(N4CCCCC4)cc3)ccc2s1, the IC50 was 2.5 µM.
With O=C(NCC1CCNCC1)c1cc2ccc(-c3ccc(N4CCCCC4)cc3)cc2[nH]1 the IC50 was 3.3 µM.
For O=C(NCC1CCNCC1)c1cc2cc(-c3cn[nH]c3)ccc2[nH]1, the IC50 was > 30 µM (inactive).
O=C(NCC1CCNCC1)c1cc2ccc(Nc3ccc(N4CCCCC4)cc3)cc2s1 gave an IC50 of 2.3 µM.
O=C(NCC1CCNCC1)c1cc2ccc(-c3ccc(N4CCCC4)cc3)cc2[nH]1 was tested, and the IC50 was 2.8 µM.
In the case of O=C(NCC1CCNCC1)c1cc2cc(-c3ccc(N4CCCCC4)cc3)ccc2[nH]1, the IC50 is reported as 3.6 µM.
